{
  "source": "the Deep4Chem optical property database",
  "experiment": "photoluminescence quantum yield (fraction); solvent given as SMILES",
  "data": [
    {"smiles": "O=C1c2ccc3c4ccc5c6c(ccc(c7ccc(c2c37)C(=O)N1c1ccc(Cl)cc1)c64)C(=O)N(c1ccc(Cl)cc1)C5=O", "values": [
      {"measurement": "photoluminescence quantum yield", "setting": "in CN(C)C=O", "result": 0.84}
    ]},
    {"smiles": "CN(C)c1ccc2c(c1)C(=O)c1ccccc1-2", "values": [
      {"measurement": "photoluminescence quantum yield", "setting": "in C1CCCCC1", "result": 0.0087},
      {"measurement": "photoluminescence quantum yield", "setting": "in c1ccccc1", "result": 0.0012}
    ]},
    {"smiles": "c1ccc2c(c1)-c1ccccc1[Si]21c2ccccc2-c2cc3c(cc21)-c1ccccc1[Si]31c2ccccc2-c2ccccc21", "values": [
      {"measurement": "photoluminescence quantum yield", "setting": "in ClCCl", "result": 0.59}
    ]},
    {"smiles": "C/C(=N\\Nc1ccc(C#N)cc1)c1ccccn1", "values": [
      {"measurement": "photoluminescence quantum yield", "setting": "in CO", "result": 0.28}
    ]},
    {"smiles": "CCCCCCN1C(=O)c2cccc3c(-c4ccc(C)s4)ccc(c23)C1=O", "values": [
      {"measurement": "photoluminescence quantum yield", "setting": "in ClC(Cl)Cl", "result": 0.78}
    ]},
    {"smiles": "CC(=O)OC[C@H]1O[C@@H](OCC#Cc2ccc(C3=C4C(C)=CC(/C=C/c5ccc([N+](C)(C)C)cc5)=[N+]4[B-](F)(F)n4c(/C=C/c5ccc([N+](C)(C)C)cc5)cc(C)c43)cc2)[C@H](OC(C)=O)C(OC(C)=O)[C@@H]1OC(C)=O", "note": "(stereo partly specified)", "values": [
      {"measurement": "photoluminescence quantum yield", "setting": "in CC#N", "result": 0.72}
    ]},
    {"smiles": "c1ccc2c(c1)CCc1c-2cnc2c1-c1ccccc1CC2", "values": [
      {"measurement": "photoluminescence quantum yield", "setting": "in C1CCOC1", "result": 0.665},
      {"measurement": "photoluminescence quantum yield", "setting": "in CC#N", "result": 0.69},
      {"measurement": "photoluminescence quantum yield", "setting": "in CCCCCC", "result": 0.149},
      {"measurement": "photoluminescence quantum yield", "setting": "in CCOC(C)=O", "result": 0.567},
      {"measurement": "photoluminescence quantum yield", "setting": "in CO", "result": 0.141},
      {"measurement": "photoluminescence quantum yield", "setting": "in CS(C)=O", "result": 0.227},
      {"measurement": "photoluminescence quantum yield", "setting": "in Cc1ccccc1", "result": 0.513},
      {"measurement": "photoluminescence quantum yield", "setting": "in ClCCl", "result": 0.291}
    ]},
    {"smiles": "CC1=CC(C)=[N+]2C1=C(c1ccc(N(C)C)cc1)c1c(C)cc(/C=C/c3ccc(N(C)C)cc3)n1[B-]2(F)F", "values": [
      {"measurement": "photoluminescence quantum yield", "setting": "in CCOCC", "result": 0.78}
    ]},
    {"smiles": "Cc1nn(-c2ccccc2)c(C2=NN(c3ccc(Br)cc3)[C@@H](c3ccccc3)[C@@H]2c2ccccc2)c1C#N", "values": [
      {"measurement": "photoluminescence quantum yield", "setting": "in C1CCCCC1", "result": 0.56},
      {"measurement": "photoluminescence quantum yield", "setting": "in C1CCOC1", "result": 0.65},
      {"measurement": "photoluminescence quantum yield", "setting": "in C1COCCO1", "result": 0.6},
      {"measurement": "photoluminescence quantum yield", "setting": "in CC#N", "result": 0.41},
      {"measurement": "photoluminescence quantum yield", "setting": "in CCCCCCC", "result": 0.43},
      {"measurement": "photoluminescence quantum yield", "setting": "in CCO", "result": 0.49},
      {"measurement": "photoluminescence quantum yield", "setting": "in CN(C)C=O", "result": 0.6},
      {"measurement": "photoluminescence quantum yield", "setting": "in CO", "result": 0.34},
      {"measurement": "photoluminescence quantum yield", "setting": "in O", "result": 0.18},
      {"measurement": "photoluminescence quantum yield", "setting": "in OCCO", "result": 0.45}
    ]},
    {"smiles": "F[B-]1(F)n2c(c3c(c2-c2ccccc2)C2C=CC3CC2)C(c2ccccc2)=C2C3=C(C(c4ccccc4)=[N+]21)C1C=CC3CC1", "note": "(stereo unspecified)", "values": [
      {"measurement": "photoluminescence quantum yield", "setting": "in ClCCl", "result": 0.87}
    ]},
    {"smiles": "N#Cc1cc(/C=C/c2ccc(/C=C/c3ccc(N(c4ccccc4)c4ccccc4)cc3)c(C#N)c2)ccc1/C=C/c1ccc(N(c2ccccc2)c2ccccc2)cc1", "values": [
      {"measurement": "photoluminescence quantum yield", "setting": "in ClCCl", "result": 0.32}
    ]},
    {"smiles": "CC[B-]1(CC)c2cccc3cc4ccccc4c(c23)-c2cccc(C)[n+]21", "values": [
      {"measurement": "photoluminescence quantum yield", "setting": "in ClCCl", "result": 0.202}
    ]},
    {"smiles": "Cc1ccc(-c2ccc(-c3ccc(-c4ccc(-c5ccc(C)cc5)cc4)c(/C(=C(/c4ccccc4)c4cc(-c5ccc(-c6ccc(C)cc6)cc5)ccc4-c4ccc(-c5ccc(C)cc5)cc4)c4ccccc4)c3)cc2)cc1", "values": [
      {"measurement": "photoluminescence quantum yield", "setting": "in C1CCOC1", "result": 0.3}
    ]},
    {"smiles": "CN(C)c1ccc(/C=C/C=C/c2ccc(C#N)cc2)cc1", "values": [
      {"measurement": "photoluminescence quantum yield", "setting": "in C1CCOC1", "result": 0.098},
      {"measurement": "photoluminescence quantum yield", "setting": "in CC#N", "result": 0.223},
      {"measurement": "photoluminescence quantum yield", "setting": "in CCCC#N", "result": 0.125},
      {"measurement": "photoluminescence quantum yield", "setting": "in CCCCCC", "result": 0.059},
      {"measurement": "photoluminescence quantum yield", "setting": "in CCCCOCCCC", "result": 0.068},
      {"measurement": "photoluminescence quantum yield", "setting": "in CCO", "result": 0.187},
      {"measurement": "photoluminescence quantum yield", "setting": "in CCOCC", "result": 0.085}
    ]},
    {"smiles": "c1ccc(-c2nc(-c3ccccc3)nc(-c3ccc(-n4c5ccccc5c5cc6c(cc54)C4(c5ccccc5-c5ccccc54)c4ccccc4-6)cc3)n2)cc1", "values": [
      {"measurement": "photoluminescence quantum yield", "setting": "in O=P(c1ccccc1)(c1ccccc1)c1ccccc1Oc1ccccc1P(=O)(c1ccccc1)c1ccccc1", "result": 0.856}
    ]},
    {"smiles": "CN(C)c1ccc2nc(-c3ccccc3)c(=O)oc2c1", "values": [
      {"measurement": "photoluminescence quantum yield", "setting": "in c1ccccc1", "result": 0.526}
    ]},
    {"smiles": "CC1=CC(c2ccc3ccccc3c2)=[O+][B-]2(OC(=O)C(=O)O2)O1", "values": [
      {"measurement": "photoluminescence quantum yield", "setting": "in CC#N", "result": 0.03},
      {"measurement": "photoluminescence quantum yield", "setting": "in ClC(Cl)(Cl)Cl", "result": 0.06}
    ]},
    {"smiles": "O=C([O-])c1ccccc1-c1c2cc(Br)c(=O)c(Br)c-2oc2c(Br)c([O-])c(Br)cc12", "values": [
      {"measurement": "photoluminescence quantum yield", "setting": "in CC(C)O", "result": 0.76},
      {"measurement": "photoluminescence quantum yield", "setting": "in CCO", "result": 0.69},
      {"measurement": "photoluminescence quantum yield", "setting": "in CO", "result": 0.6},
      {"measurement": "photoluminescence quantum yield", "setting": "in O", "result": 0.2}
    ]},
    {"smiles": "CC(C)=CCN1C(=O)c2cccc3c2c(cc2oc(C)nc23)C1=O", "values": [
      {"measurement": "photoluminescence quantum yield", "setting": "in CCO", "result": 0.011}
    ]}
  ]
}
